Tests used:
[1] = system: human CD45+ADAR1-GFP+ cells and CD45+CD3+ADAR1-GFP+ cells; assay: aNBM SAK148 PDX mice, flow cytometry; assay type: in vivo, human cells in NSG-SGM3 mice; conditions: 10 mg/kg, IV, BIW×2
Method: Aged normal bone marrow (aNBM) PDX mouse models SAK148, which were established with 80-100K ADAR1-reporter transduced CD34+ cells by IV injection into NSG-SGM3 mice at the age of 5-6 weeks. When the models were ready, the mice were treated with either vehicle or rebecsinib (10 mg/kg, IV, BIW×2). The mice were sacrificed upon completion of the dosing plan, and single cells from PB, SP, and BM were collected and stained with mAbs for CD45, CD3, CD14, and CD19.

[2] = system: KG-1a, MOLM-13 and HL-60 cells (SF3B family members, PTK2B-202); assay: Splice isoform biomarker qRT-PCR in human AML cell lines; assay type: cell-based; conditions: 1 μM, 4 hr
Method: For quantitative analysis of splice isoform expression, RNA editing rates, and whole gene expression by qRT-PCR, cells or tissue fragments were harvested in RNA lysis buffer and total RNA was extracted using RNeasy mini or micro extraction kits (QIAGEN, Germantown, MD) following the manufacturer's protocol including a DNase incubation step to digest any trace genomic DNA present. Levels of ADAR1 variants and LSC-specific transcripts were quantified by qRT-PCR as previously described.^14 RNA-editing site-specific qRT-PCR (RESSqPCR) was performed for variants in AZIN1 transcripts.^53 Additional species-specific primers were also designed to quantify intron retention rates in cells treated with Rebecsinib as a biomarker of response to RNA splicing modulation. Specifically, for the two-step SYBR-green based assays, as previously described,^7,14,53 100-1000 ng of RNA were subjected to cDNA synthesis using the SUPERSCRIPT III™ (ThermoFisher Scientific) kit followed by qRT-PCR using SYBR GreenER (ThermoFisher Scientific) master mix according to the manufacturer's recommended procedures. qRT-PCR was performed using SYBR GREENER SUPER MIX™ (Life Technologies) on BioRad iQ5™, C1000 TOUCH™, or BioRad CFX384™ instruments. Human splice isoform-specific, RNA editing site-specific qPCR (RESSqPCR)^53. Primer sets that have not been previously published were designed and tested for efficiency followed by analyses in samples exposed to Rebecsinib, with species-specific HPRT primers used as controls. […] Relative mRNA expression values were calculated using the 2^−ΔCT method, with normalization to untreated or vehicle-treated controls.^54
For multi-species biomarker development and transcript variant-specific qRT-PCR experiments, human AML cell lines KG-1a, MOLM-13, and HL-60, and rat leukemia cells RBL-1 were grown to confluence and treated with 1 μM Rebecsinib for 4 hr. Cells were collected and lysed in Qiagen RNA lysis buffer, and analyzed using the species-specific primers and qRT-PCR procedures described above.

[3] = system: sAML LSC; assay: Humanized sAML LSC mouse model; assay type: in vivo, human cells in Rag2-/-γc-/- mice; conditions: twice weekly dosing; splicing factor mutated and unmutated samples
Excerpt: In humanized mouse models, sAML cells (CD34^+) from two unique […] patient samples that were splicing factor mutated or unmutated were utilized, including sAML50261 and sAML2008-5.^14 For in vivo efficacy and therapeutic index studies, sAML CD34^+ cells, or normal human cord blood-derived or aged bone marrow-derived HSPCs (CD34^+), were transplanted (50,000-200,000 cells per mouse) intrahepatically into neonatal Rag2^−/−γc^−/− mice, or intravenously into adult NSG-SGM3 mice (Jackson Laboratories, Bar Harbor, ME). A subset of experiments was performed with normal aged bone marrow cells that were transduced with the lentiviral ADAR1 nanoluc-GFP reporter vector prior to transplant. […] For animals that received transplants of cells transduced with the lentiviral ADAR1 nanoluc-GFP reporter, mice were imaged 15 weeks after transplant on the IVIS 200, as previously described.^79 Following treatment with Rebecsinib (five intravenous doses total over a two-week period), hematopoietic tissues (peripheral blood, bone marrow, spleens) were collected and analyzed by flow cytometry as previously described.^14 For splice isoform-specific qRT-PCR or RNA-seq analyses on cells from in vivo studies, human CD34^+ LSC from bone marrows and spleens of engrafted mice were isolated by magnetic bead separation (Miltenyi Biotec).

[4] = system: sAML LSC; assay: Serial transplantation assays of sAML LSC; assay type: in vivo, human cells in mice
Method: To test this, we performed serial transplantation assays of cells harvested from sAML50261 LSC engrafted mice that were treated intravenously twice weekly for two weeks with Rebecsinib at 10 mg/kg (serial transplant recipients received no further treatment). […] Thus, reductions in ADAR1p150-mediated RNA editing activity following Rebecsinib treatment correspond with a reversion to a healthy splice isoform expression profile^14 in engrafted human progenitors.
In humanized mouse models, sAML cells (CD34^+) from two unique […] patient samples that were splicing factor mutated or unmutated were utilized, including sAML50261 and sAML2008-5.^14 For in vivo efficacy and therapeutic index studies, sAML CD34^+ cells, or normal human cord blood-derived or aged bone marrow-derived HSPCs (CD34^+), were transplanted (50,000-200,000 cells per mouse) intrahepatically into neonatal Rag2^−/−γc^−/− mice, or intravenously into adult NSG-SGM3 mice (Jackson Laboratories, Bar Harbor, ME). A subset of experiments was performed with normal aged bone marrow cells that were transduced with the lentiviral ADAR1 nanoluc-GFP reporter vector prior to transplant. For transplantation into adult mice, animals were irradiated with ^137Cs at a dose of 150 cGy 24 hr before IV transplantation. After engraftment levels reached >1% human CD45^+ hematopoietic cells in the peripheral blood, animals were distributed among treatment groups for treatment with Rebecsinib or vehicle control essentially as previously described, with an increased dosing regimen of twice weekly (versus once weekly in prior studies)^14 and an optimized in vivo formulation (2% w/w EtOH, 5% w/v KOLLIPHOR HS™ 15 in 0.9% saline). For animals that received transplants of cells transduced with the lentiviral ADAR1 nanoluc-GFP reporter, mice were imaged 15 weeks after transplant on the IVIS 200, as previously described.^79 Following treatment with Rebecsinib (five intravenous doses total over a two-week period), hematopoietic tissues (peripheral blood, bone marrow, spleens) were collected and analyzed by flow cytometry as previously described.^14 For splice isoform-specific qRT-PCR or RNA-seq analyses on cells from in vivo studies, human CD34^+ LSC from bone marrows and spleens of engrafted mice were isolated by magnetic bead separation (Miltenyi Biotec).
Additional aliquots of CD34+ cells from bone marrow and/or spleens of treated and control animals were used for serial transplantation assays after Rebecsinib treatment, including engraftment studies and overall survival assays. In a separate cohort of animals, mice were treated with Fedratinib for two weeks (twice daily oral delivery at 60 mg/kg) as a positive control for modulation of ADAR1 expression and activity.^8

In the case of `CC[C@H](OC)[C@@H](C)[C@H]1O[C@@H]1[C@@H](O)[C@H](C)/C=C/C=C(\C)[C@H]1OC(=O)C[C@H](O)CC[C@@](C)(O)[C@@H](OC(C)=O)/C=C/[C@@H]1C` [Rebecsinib], the “CD45+CD3+GFP+ cells in PB, SP, and BM” value [1] is reported as “spares the cell populations”, the “CD45+GFP+ cells in PB, SP, and BM” value [1] is reported as “spares the cell populations” and the “expression of PTK2B-202 isoform” value [2] is reported as “Decreased expression of the LSC-related PTK2B-202 isoform”. The “intronic retention of SF3B family members” value ([2]; KG-1a, MOLM-13 and HL-60) was “significant upregulation of intronic retention of SF3B family members”, the “SF3B3 intron retention response” value ([2]; across all cell lines) was “most potent and consistent response” and the “sAML LSC burden in bone marrow, peripheral blood, and spleen” value [3] was “significant reduction in sAML LSC burden”. The “ADAR-208 expression after serial transplantation compared with ADAR1p110” value ([4]; CD34+ cells from serial transplant recipients, RNA-seq) was “sustained reductions in expression”, the “frequency of hematopoietic progenitors (CD34+CD38+Lin-) in spleens of serial transplant recipients” value ([4]; sAML50261, 10 mg/kg intravenously twice weekly for two weeks (primary mice)) was “reduced frequency of hematopoietic progenitors” and the “LSC self-renewal on serial transplantation” value ([4]; splicing factor mutated sAML (2008-5)) was “significantly reduced LSC self-renewal”. The “overall survival of serial transplant recipients” value ([4]; splicing factor unmutated sAML 50261) was “significant improvement in overall survival”.

Reference: patent publication US20260364072A1, “METHODS FOR PROMOTING EXPANSION OF HUMAN CD34+ CELLS IN VIVO AND FOR PROMOTING NEURAL REGENERATION” (THE REGENTS OF THE UNIVERSITY OF CALIFORNIA, priority 2023, published 2026)
